The target of data set [1] is Cdk4/Cyclin D (Homo sapiens, UniProt P11802). In words: Assay for inhibition of Cdk4/Cyclin D (32P incorporation into retinoblastoma protein, filter plate). Type of data set: biochemical. On the procedure: (§1) To determine the inhibitory potency and selectivity of compounds of the present invention against Cdk4 and related kinases, compounds were evaluated in standard assays routinely used to measure inhibition of cyclin-dependent kinase enzymes and other protein kinases (see for example D. W. Fry et al., J. Biol. Chem. 2001, 276, 16617-16623). The assays were carried out as described below.
Assay for Inhibition of Cdk4/Cyclin D
The Cdk4 enzyme assay for IC50 determination and kinetic evaluation is performed as follows. 96-well filter plates (Millipore MADVN6550) are used. The total volume is 0.1 mL containing buffer A (20 mM TRIS (tris[hydroxymethyl]aminomethane) (pH 7.4), 50 mM NaCl, 1 mM dithiothreitol, 10 mM MgCl2), 25 [[…] ATP containing 0.25 μCi [^32P]ATP, 20 ng Cdk4, 1 μg retinoblastoma protein and the test compound at appropriate dilutions in buffer A. Buffer A alone without added test compound was employed as a control for no inhibition. Buffer A containing excess EDTA was used to determine the level of background ^32P in the absence of enzyme activity. All components except the ATP are added to the wells, and the plate is placed on a plate mixer for 2 minutes. The reaction is started by adding [^32P]ATP, and the plate is incubated at 25° C. for 15 minutes. The reaction is terminated by addition of 0.1 mL 20% trichloroacetic acid (TCA). The plate is kept at 4° C. for at least 1 hour to allow the substrate to precipitate. The wells are then washed five times with 0.2 mL 10% TCA, and ^32P incorporation is determined with a beta plate counter (Wallac Inc., Gaithersburg, Md.). The IC50 of the test compound was determined using the median effect method (Chou, T-C and Talalay, P. Applications of the median effect principle for the assessment of low-dose risk of carcinogens and for the quantitation of synergism and antagonism of chemotherapeutic agents. In: New Avenues in Developmental Cancer Chemotherapy (Eds. Harrap, K. T. and Connors, T. A.), pp. 37-64. Academic Press, New York, 1987).

Data set [2] addresses Cdk2/cyclin A (Homo sapiens, UniProt P24941). Nature of the data set: Assay for inhibition of Cdk2/Cyclin A (32P incorporation into retinoblastoma protein, filter plate). Type of data set: biochemical. How it is done:
as §1
Assay for Inhibition of Cdk2/Cyclin A
Cdk2 enzyme assays for IC50 determinations and kinetic evaluation are performed as follows. 96-well filter plates (Millipore MADVN6550) are used. The final assay volume is 0.1 mL containing buffer A (20 mM TRIS (tris[hydroxymethyl]aminomethane) (pH 7.4), 50 mM NaCl, 1 mM dithiothreitol, 10 mM MgCl2), […] containing 0.25 μCi [^32P]ATP, 20 ng Cdk2/cyclin A, 1 μg retinoblastoma protein, and the test compound at appropriate dilutions in buffer A (Buffer A alone without added test compound was employed as a control for no inhibition. Buffer A containing excess EDTA was used to determine the level of background ^32P in the absence of enzyme activity). All components except the ATP are added to the wells, and the plate is placed on a plate mixer for 2 minutes. The reaction is initiated by addition of [^32P]ATP, and the plate is incubated at 25° C. for 15 minutes. The reaction is terminated by addition of 0.1 mL 20% TCA. The plate is kept at 4° C. for at least 1 hour to allow the substrate to precipitate. The wells are then washed five times with 0.2 mL 10% TCA, and ^32P incorporation is determined with a beta plate counter (Wallac Inc., Gaithersburg, Md.). The IC50 of the test compound was determined using the median effect method (Chou, T-C and Talalay, P. Applications of the median effect principle for the assessment of low-dose risk of carcinogens and for the quantitation of synergism and antagonism of chemotherapeutic agents. In: New Avenues in Developmental Cancer Chemotherapy (Eds. Harrap, K. T. and Connors, T. A.), pp. 37-64. Academic Press, New York, 1987).

Data set [3] deals with neointima formation. The note with it: in rats; cited from earlier work.

Counter-ions that a name gives are not always drawn. Bounds are passed on as bounds.

Chain of Cdk4/Cyclin D (P11802 whole entry, species assumed): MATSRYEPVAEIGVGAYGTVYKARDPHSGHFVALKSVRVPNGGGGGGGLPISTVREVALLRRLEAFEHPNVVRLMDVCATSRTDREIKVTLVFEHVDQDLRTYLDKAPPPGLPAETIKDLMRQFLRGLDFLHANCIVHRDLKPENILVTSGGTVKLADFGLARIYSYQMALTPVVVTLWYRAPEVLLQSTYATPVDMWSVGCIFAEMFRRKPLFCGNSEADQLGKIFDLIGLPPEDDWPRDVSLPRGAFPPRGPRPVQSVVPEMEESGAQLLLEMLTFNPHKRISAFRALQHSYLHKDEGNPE
Chain of Cdk4/Cyclin D (P24385 whole entry partner, species assumed): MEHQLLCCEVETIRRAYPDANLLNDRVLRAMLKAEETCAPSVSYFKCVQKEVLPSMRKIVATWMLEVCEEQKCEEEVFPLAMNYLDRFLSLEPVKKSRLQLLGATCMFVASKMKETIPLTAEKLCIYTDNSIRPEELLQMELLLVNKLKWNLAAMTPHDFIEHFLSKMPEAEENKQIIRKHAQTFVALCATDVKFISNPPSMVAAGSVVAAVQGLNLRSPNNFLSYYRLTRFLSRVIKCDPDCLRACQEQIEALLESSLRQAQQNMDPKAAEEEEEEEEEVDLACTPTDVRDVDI

Broadly, the melting point is the temperature of the solid-liquid transition. The compound `CCOC(=O)c1cnc(Nc2ccc(N3CCNCC3)cn2)nc1NC1CCCC1` (as salt: hydrochloride) had a melting point of 180 °C.

Usually IC50 stands for the midpoint of a concentration-inhibition curve. On to `Cc1nc2cnc(Nc3ccc(N4CCNCC4)cc3)nc2n(C2CCCC2)c1=O` [8′, reference compound], for which the IC50 came out at 14 nM in data set [1] and 913 nM in data set [2].

As for `CCc1nc2cnc(Nc3ccc(N4CCNCC4)cc3)nc2n(C2CCCC2)c1=O` [10′, reference compound], the IC50 worked out at 28 nM in data set [1] and 4120 nM in data set [2].

In the case of `COc1ccc(CNc2nc(N(CCO)CCO)nc3c2ncn3C(C)C)cc1` [CVT-313], the “inhibition of neointima formation” value in data set [3] is recorded as “greater than 80%”.

Compound `Cc1nc2cnc(Nc3ccc(N4CCNCC4)cn3)nc2n(C2CCCC2)c1=O` [Example 8, 8-Cyclopentyl-6-methyl-2-(5-piperazin-1-yl-pyridin-2-ylamino)-8H-pteridin-7-one] yielded a melting point of 221 to 223 °C. In addition, the IC50 in data set [1] amounted to 510 nM. Besides, the IC50 in data set [2] was over 5000 nM.

On to `CCc1nc2cnc(Nc3ccc(N4CCNCC4)cn3)nc2n(C2CCCC2)c1=O` [Example 10, 8-Cyclopentyl-6-ethyl-2-(5-piperazin-1-yl-pyridin-2-ylamino)8H-pteridin-7-one], for which the melting point was 203 to 208 °C (dec.). In data set [1], the IC50 was 335 nM. Also, the IC50 in data set [2] is over 5000 nM.

Consider `COc1ccc2cnc(Nc3ccc(N4CCNCC4)cn3)nc2c1C1CCCC1` [Example 13, (8-Cyclopentyl-7-methoxy-quinazolin-2-yl)-(5-piperazin-1-yl-pyridin-2-yl)-amine], for which the melting point is over 200 °C. Besides, the concentration for half-maximal inhibition (IC50) in data set [1] was 4 nM. In addition, the IC50 in data set [2] turned out to be 1700 nM.

Regarding `CNc1nc(Nc2ccc(N3CCOCC3)cc2)nc(NC2CCCC2)n1` [Example 14D, N-Cyclopentyl-N′-methyl-N″-(4-morpholin-4-yl-phenyl)-[1,3,5]triazine-2,4,6-triamine], the melting point is 218 to 219 °C.

For `Clc1nc(Nc2ccc(N3CCOCC3)nc2)nc(NC2CCCC2)n1` [Example 14E, 6-Chloro-N-cyclopentyl-N′-(6-morpholin-4-yl-pyridin-3-yl)-[1,3,5]triazine-2,4-diamine], the melting point fell in the range of 218 to 219 °C.

`O=C1N(Cc2ccccc2)Cc2cnc(Nc3ccc(N4CCCCC4)cn3)nc2N1C1CCCC1` [Example 15, 3-Benzyl-1-cyclopentyl-7-(3,4,5,6-tetrahydro-2H-[1,3′]bipyridinyl-6′-ylamino)-3,4-dihydro-1H-pyrimido[4,5-d]pyrimidin-2-one] gave a melting point of 194 to 196 °C.

The record behind these values is US20040236084A1, “2-Aminopyridine substituted heterocycles” (Pfizer Inc, priority 2003, published 2004).
